Experimental findings from patent US10179782B2, “Substituted sulfonamide compounds” (Genentech, Inc., priority 2016, dated 2019) are described below.

T1 sequence (O75762 whole entry): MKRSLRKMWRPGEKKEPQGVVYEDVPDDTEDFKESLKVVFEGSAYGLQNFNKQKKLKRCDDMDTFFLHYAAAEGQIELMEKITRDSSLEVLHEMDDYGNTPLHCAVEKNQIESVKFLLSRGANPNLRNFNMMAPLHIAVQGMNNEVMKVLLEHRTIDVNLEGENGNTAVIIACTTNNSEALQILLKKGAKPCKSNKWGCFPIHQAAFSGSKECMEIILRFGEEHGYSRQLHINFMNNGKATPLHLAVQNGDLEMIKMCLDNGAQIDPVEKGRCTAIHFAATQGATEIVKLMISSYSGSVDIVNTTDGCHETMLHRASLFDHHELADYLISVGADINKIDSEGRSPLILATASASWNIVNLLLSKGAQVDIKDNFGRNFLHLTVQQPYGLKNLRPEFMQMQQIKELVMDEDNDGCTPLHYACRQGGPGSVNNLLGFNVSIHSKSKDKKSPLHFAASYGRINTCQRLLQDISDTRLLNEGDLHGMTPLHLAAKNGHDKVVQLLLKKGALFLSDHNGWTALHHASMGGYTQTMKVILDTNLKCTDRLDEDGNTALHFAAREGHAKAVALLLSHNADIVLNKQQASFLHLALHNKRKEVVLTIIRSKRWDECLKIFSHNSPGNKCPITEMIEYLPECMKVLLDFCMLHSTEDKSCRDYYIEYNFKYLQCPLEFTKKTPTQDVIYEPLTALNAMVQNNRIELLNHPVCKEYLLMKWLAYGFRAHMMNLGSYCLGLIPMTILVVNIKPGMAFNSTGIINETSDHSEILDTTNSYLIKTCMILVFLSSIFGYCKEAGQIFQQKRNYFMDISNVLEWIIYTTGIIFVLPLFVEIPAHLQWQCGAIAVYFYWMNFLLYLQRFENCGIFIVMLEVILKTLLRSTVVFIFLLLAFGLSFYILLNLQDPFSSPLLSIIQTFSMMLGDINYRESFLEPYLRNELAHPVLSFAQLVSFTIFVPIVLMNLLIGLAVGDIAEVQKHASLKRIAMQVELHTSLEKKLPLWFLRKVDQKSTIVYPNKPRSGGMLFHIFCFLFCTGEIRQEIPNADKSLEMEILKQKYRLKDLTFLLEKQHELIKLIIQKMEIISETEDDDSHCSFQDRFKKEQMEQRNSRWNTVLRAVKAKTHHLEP

The assay addresses T1, human TRPA1 (Homo sapiens, UniProt O75762).
T1 construct: expressed in transfected cells; host or cells: CHO cells
As to the kind of experiment: TRPA1 FLIPR Tetra calcium influx assay in CHO cells (block of cinnamaldehyde-induced calcium influx). In kind it is cell-based. Conditions: Table 2; CHO cells expressing TRPA1; agonist cinnamaldehyde 75 uM; 20 min compound incubation; Hill coefficient fixed to 1.5; read-out: hTRPA1 CHO Ca2+ AUC EVO (IC50). The gist of the method:
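CHO cells expressing TRPA1 were loaded with calcium dye in HBSS/20 mM HEPES, pH 7.4, 0.02% BSA, then given compound for 20 min at room temperature before ~EC80 cinnamaldehyde (75 µM human, 45 µM rat). Block of calcium influx was read on FLIPR Tetra; IC50 fitted with Hill coefficient fixed at 1.5.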
With `CC(C)Oc1nc(CNC(=O)[C@@H]2C[C@@H](F)CN2S(=O)(=O)c2ccc(F)cc2)cc(-c2cnc(C(F)(F)F)nc2)n1` [Example 60, (2S,4R)-4-fluoro-1-(4-fluorophenyl)sulfonyl-N-[[2-isopropoxy-6-[2-(trifluoromethyl)pyrimidin-5-yl]pyrimidin-4-yl]methyl]pyrrolidine-2-carboxamide], the IC50 is 0.0831 µM. The result for `O=C(NCc1cc(-c2cnc(C(F)(F)F)nc2)ncc1F)[C@@H]1CC[C@H](C(F)(F)F)N1S(=O)(=O)c1ccc(F)cc1` [Example 61, (2S,5R)-1-(4-fluorophenyl)sulfonyl-N-[[5-fluoro-2-[2-(trifluoromethyl)pyrimidin-5-yl]-4-pyridyl]methyl]-5-(trifluoromethyl)pyrrolidine-2-carboxamide] reads 0.0216 µM; that for `C[C@H]1[C@H](F)C[C@@H](C(=O)NCc2cn(-c3cnc(C(F)(F)F)nc3)nc2Cl)N1S(=O)(=O)c1ccc(F)cc1` [Example 62, (2S,4R,5S)-N-[[3-chloro-1-[2-(trifluoromethyl)pyrimidin-5-yl]pyrazol-4-yl]methyl]-4-fluoro-1-(4-fluorophenyl)sulfonyl-5-methyl-pyrrolidine-2-carboxamide], 0.0582 µM. Consider `O=C(NCc1cc(-c2cnc(C(F)(F)F)nc2)ncc1Cl)[C@@H]1[C@H]2C[C@H]2CN1S(=O)(=O)c1ccc(F)cc1` [Example 63, (1S,2S,5R)-N-[[5-chloro-2-[2-(trifluoromethyl)pyrimidin-5-yl]-4-pyridyl]methyl]-3-(4-fluorophenyl)sulfonyl-3-azabicyclo[3.1.0]hexane-2-carboxamide], for which the IC50 worked out at 0.00616 µM. The result for `N#Cc1cc(F)c(-c2cnc(C(F)(F)F)nc2)cc1CNC(=O)[C@@H]1C[C@@H](F)CN1S(=O)(=O)c1ccc(F)cc1` [Example 64, (2S,4R)-N-[[2-cyano-4-fluoro-5-[2-(trifluoromethyl)pyrimidin-5-yl]phenyl]methyl]-4-fluoro-1-(4-fluorophenyl)sulfonyl-pyrrolidine-2-carboxamide] reads 0.0445 µM. Under `O=C(NCc1cc(-c2cnc(C(F)(F)F)nc2)ncn1)[C@@H]1[C@H]2C[C@H]2CN1S(=O)(=O)c1ccc(F)cc1` [Example 65, (1S,2S,5R)-3-(4-fluorophenyl)sulfonyl-N-[[6-[2-(trifluoromethyl)pyrimidin-5-yl]pyrimidin-4-yl]methyl]-3-azabicyclo[3.1.0]hexane-2-carboxamide] stands 0.0648 µM; under `CCc1cc(CNC(=O)[C@@H]2C[C@@H](F)CN2S(=O)(=O)c2ccc(F)cc2)cc(-c2cnc(C(F)(F)F)nc2)n1` [Example 66, (2S,4R)-N-[[2-ethyl-6-[2-(trifluoromethyl)pyrimidin-5-yl]-4-pyridyl]methyl]-4-fluoro-1-(4-fluorophenyl)sulfonyl-pyrrolidine-2-carboxamide], 0.0769 µM; under `O=C(NCc1cc(-c2cnc(C(F)(F)F)nc2)nc(C2CC2)c1)[C@@H]1C[C@@H](F)CN1S(=O)(=O)c1ccc(F)cc1` [Example 67, (2S,4R)-N-[[2-cyclopropyl-6-[2-(trifluoromethyl)pyrimidin-5-yl]-4-pyridyl]methyl]-4-fluoro-1-(4-fluorophenyl)sulfonyl-pyrrolidine-2-carboxamide], 0.0651 µM.

As to `O=C(NCc1ccc(F)c(-c2cnc(C(F)(F)F)nc2)c1)[C@@H]1[C@@H]2[C@H](CN1S(=O)(=O)c1ccc(F)cc1)C2(F)F` [Example 69, (1R,4S,5S)-6,6-difluoro-3-(4-fluorophenyl)sulfonyl-N-[[4-fluoro-3-[2-(trifluoromethyl)pyrimidin-5-yl]phenyl]methyl]-3-azabicyclo[3.1.0]hexane-4-carboxamide], the IC50 is 0.0457 µM.

On to `O=C(NCc1cc(-c2cnc(C(F)(F)F)nc2)ncc1F)[C@@H]1[C@@H]2[C@H](CN1S(=O)(=O)c1ccc(F)cc1)C2(F)F` [Example 71, (1S,2S,5R)-6,6-difluoro-N-((5-fluoro-2-(2-(trifluoromethyl)pyrimidin-5-yl)pyridin-4-yl)methyl)-3-((4-fluorophenyl)sulfonyl)-3-azabicyclo[3.1.0]hexane-2-carboxamide], for which the IC50 turned out to be 0.0462 µM.

Turning to `CC1(C)[C@@H]2[C@@H](C(=O)NCc3cc(-c4cnc(C(F)(F)F)nc4)ncc3F)N(S(=O)(=O)c3ccc(F)cc3)C[C@@H]21` [Example 72, (1S,4S,5R)-3-(4-fluorophenyl)sulfonyl-N-[[5-fluoro-2-[2-(trifluoromethyl)pyrimidin-5-yl]-4-pyridyl]methyl]-6,6-dimethyl-3-azabicyclo[3.1.0]hexane-4-carboxamide], the IC50 is 0.0147 µM.

As for `O=C(NCc1cc(-c2cnc(C(F)(F)F)nc2)nc(C2CC2)n1)[C@@H]1C[C@@H](F)CN1S(=O)(=O)c1ccc(F)cc1` [Example 73, (2S,4R)-N-[[2-cyclopropyl-6-[2-(trifluoromethyl)pyrimidin-5-yl]pyrimidin-4-yl]methyl]-4-fluoro-1-(4-fluorophenyl)sulfonyl-pyrrolidine-2-carboxamide], the IC50 came to 0.0567 µM. The result for `O=C(NCc1cc(-c2cnc(C(F)(F)F)nc2)c(F)cc1F)[C@@H]1C[C@@H](F)CN1S(=O)(=O)c1ccc(F)cc1` [Example 74, (2S,4R)-N-[[2,4-difluoro-5-[2-(trifluoromethyl)pyrimidin-5-yl]phenyl]methyl]-4-fluoro-1-(4-fluorophenyl)sulfonyl-pyrrolidine-2-carboxamide] reads 0.0651 µM; that for `C[C@@]1(F)C[C@@H](C(=O)NCc2cc(Cl)nc(-c3cnc(C(F)(F)F)nc3)c2)N(S(=O)(=O)c2ccc(F)cc2)C1` [Example 75, (2S,4R)-N-[[2-chloro-6-[2-(trifluoromethyl)pyrimidin-5-yl]-4-pyridyl]methyl]-4-fluoro-1-(4-fluorophenyl)sulfonyl-4-methyl-pyrrolidine-2-carboxamide], 0.0666 µM. Under `O=C(NCc1cc(-c2cnc(C(F)(F)F)nc2)cc(F)c1F)[C@@H]1C[C@@H](F)CN1S(=O)(=O)c1ccc(F)cc1` [Example 76, (2S,4R)-N-[[2,3-difluoro-5-[2-(trifluoromethyl)pyrimidin-5-yl]phenyl]methyl]-4-fluoro-1-(4-fluorophenyl)sulfonyl-pyrrolidine-2-carboxamide] stands 0.0393 µM; under `O=C(NCc1ccc(F)c(-c2cnc(C(F)(F)F)s2)c1)[C@@H]1C[C@@H](F)CN1S(=O)(=O)c1ccc(F)cc1` [Example 77, (2S,4R)-4-fluoro-1-(4-fluorophenyl)sulfonyl-N-[[4-fluoro-3-[2-(trifluoromethyl)thiazol-5-yl]phenyl]methyl]pyrrolidine-2-carboxamide], 0.0733 µM. Under `CC1(C)[C@@H]2[C@@H](C(=O)NCc3ccc(F)c(-c4cnc(C(F)(F)F)nc4)c3)N(S(=O)(=O)c3ccc(F)cc3)C[C@@H]21` [Example 78, (1S,4S,5R)-3-(4-fluorophenyl)sulfonyl-N-[[4-fluoro-3-[2-(trifluoromethyl)pyrimidin-5-yl]phenyl]methyl]-6,6-dimethyl-3-azabicyclo[3.1.0]hexane-4-carboxamide] stands 0.0234 µM. As to `COC[C@H]1CC[C@@H](C(=O)NCc2cc(-c3cnc(C(F)(F)F)nc3)ncc2F)N1S(=O)(=O)c1ccc(F)cc1` [Example 80, (2S,5R)-N-((5-fluoro-2-(2-(trifluoromethyl)pyrimidin-5-yl)pyridin-4-yl)methyl)-1-((4-fluorophenyl)sulfonyl)-5-(methoxymethyl)pyrrolidine-2-carboxamide], the IC50 came out at 0.0982 µM. Under `C[C@H]1[C@H](F)C[C@@H](C(=O)NCc2cc(N3CC(OC(F)(F)F)C3)nc(C3CC3)n2)N1S(=O)(=O)c1ccc(F)cc1` [Example 81, (2S,4R,5S)-N-[[2-cyclopropyl-6-[3-(trifluoromethoxy)azetidin-1-yl]pyrimidin-4-yl]methyl]-4-fluoro-1-(4-fluorophenyl)sulfonyl-5-methyl-pyrrolidine-2-carboxamide] stands 0.0553 µM; under `C[C@H]1[C@H](F)C[C@@H](C(=O)NCc2cc(OCCOC(F)(F)F)c(F)cn2)N1S(=O)(=O)c1ccc(F)cc1` [Example 82, (2S,4R,5S)-4-fluoro-1-(4-fluorophenyl)sulfonyl-N-[[5-fluoro-4-[2-(trifluoromethoxy)ethoxy]-2-pyridyl]methyl]-5-methyl-pyrrolidine-2-carboxamide], 0.166 µM.

For the molecule `C[C@H]1[C@H](F)C[C@@H](C(=O)NCc2cc(OCC3(C(F)(F)F)CC3)nc(C3CC3)n2)N1S(=O)(=O)c1ccc(F)cc1` [Example 83, (2S,4R,5S)-N-[[2-cyclopropyl-6-[[1-(trifluoromethyl)cyclopropyl]methoxy]pyrimidin-4-yl]methyl]-4-fluoro-1-(4-fluorophenyl)sulfonyl-5-methyl-pyrrolidine-2-carboxamide], the IC50 was found to be 0.147 µM.

On to `C[C@H]1[C@H](C#N)C[C@@H](C(=O)NCc2cc(-c3cnc(C(F)(F)F)nc3)ncc2F)N1S(=O)(=O)c1ccc(F)cc1` [Example 84, (2S,4R,5S)-4-cyano-1-(4-fluorophenyl)sulfonyl-N-[[5-fluoro-2-[2-(trifluoromethyl)pyrimidin-5-yl]-4-pyridyl]methyl]-5-methyl-pyrrolidine-2-carboxamide], for which the IC50 was found to be 0.0653 µM. Regarding `C[C@H]1[C@H](F)C[C@@H](C(=O)NCc2cc(-c3cnc(C(F)(F)F)s3)c(F)cn2)N1S(=O)(=O)c1ccc(F)cc1` [Example 85, (2S,4R,5S)-4-fluoro-1-(4-fluorophenyl)sulfonyl-N-[[5-fluoro-4-[2-(trifluoromethyl)thiazol-5-yl]-2-pyridyl]methyl]-5-methyl-pyrrolidine-2-carboxamide], the IC50 worked out at 0.0337 µM. With `C[C@H]1[C@H](F)C[C@@H](C(=O)NCc2cc(-c3cnc(C(F)(F)F)nc3)c(C#N)cn2)N1S(=O)(=O)c1ccc(F)cc1` [Example 86, (2S,4R,5S)-N-[[5-cyano-4-[2-(trifluoromethyl)pyrimidin-5-yl]-2-pyridyl]methyl]-4-fluoro-1-(4-fluorophenyl)sulfonyl-5-methyl-pyrrolidine-2-carboxamide], the IC50 stood at 0.124 µM.
